The record followed here is PubChem BioAssay AID330 (DTP/NCI, 2004).

The structures appear in SMILES notation. Where “and” joins values, the source holds several entries; their conditions need not be identical. Equal values may be shown once. Toxic doses and inconclusive results are not listed.

This assay concerns P388 leukemia ip, CD2F1 mice, survival T/C. The assay is described as follows: NCI In Vivo Anticancer Drug Screen. Data for tumor model P388 Leukemia (intraperitoneal) in CD2F1 (CDF1) mice. The conditions noted are these: endpoint: median survival time, higher = longer survival. An outline of the steps:
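Mice carrying the transplanted tumor received test compound or vehicle. Survival was recorded in each group, and the value is the treated-group measurement divided by that of the vehicle-treated control group.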

The mark [1] stands for this setting: dose: 50.0 mg/kg/injection, schedule: Q01DX005 (ip), vehicle: Klucel (hydroxypropylcellulose) (HPC).
Where [2] appears, read: dose: 50.0 mg/kg/injection, schedule: Q01DX009 (ip), vehicle: saline with Tween-80.
Setting [3] is: dose: 100.0 mg/kg/injection, schedule: Q01DX009 (ip), vehicle: saline with Tween-80.
Where [4] appears, read: dose: 100.0 mg/kg/injection, schedule: Q01DX005 (ip), vehicle: Klucel (hydroxypropylcellulose) (HPC).
Setting [5] is: dose: 200.0 mg/kg/injection, schedule: Q01DX005 (ip), vehicle: Klucel (hydroxypropylcellulose) (HPC).
Where [6] appears, read: dose: 50.0 mg/kg/injection, schedule: Q01DX005 (ip), vehicle: saline with Tween-80.
The mark [7] stands for this setting: dose: 100.0 mg/kg/injection, schedule: Q01DX005 (ip), vehicle: saline with Tween-80.
Where [8] appears, read: dose: 200.0 mg/kg/injection, schedule: Q01DX005 (ip), vehicle: saline with Tween-80.

For `O=C(O)C1=C(O)CCN=C1`, the T/C reads like this: (dose: 12.5 mg/kg/injection, schedule: Q01DX005 (ip), vehicle: Klucel (hydroxypropylcellulose) (HPC)) 99 % of control; (dose: 25.0 mg/kg/injection, schedule: Q01DX005 (ip), vehicle: Klucel (hydroxypropylcellulose) (HPC)) 99 % of control; under setting [1], 105 % of control.
Take `O=NNc1ccc(S(=O)(=O)c2ccc(NN=O)cc2)cc1`: the T/C by setting is: (dose: 3.12 mg/kg/injection, schedule: Q01DX009 (ip), vehicle: water) 91 % of control; (dose: 6.25 mg/kg/injection, schedule: Q01DX009 (ip), vehicle: water) 110 % of control; (dose: 12.5 mg/kg/injection, schedule: Q01DX009 (ip), vehicle: water) 119 % of control; (dose: 25.0 mg/kg/injection, schedule: Q01DX009 (ip), vehicle: water) 116 % of control; (dose: 37.5 mg/kg/injection, schedule: Q01DX009 (ip), vehicle: water) 122 % of control; (dose: 50.0 mg/kg/injection, schedule: Q01DX009 (ip), vehicle: water) 119 % of control. The T/C (dose: 75.0 mg/kg/injection, schedule: Q01DX009 (ip), vehicle: water) is 113 % of control.
Consider `COc1cc2c(cc1OC)C13CCN4CC5=CCOC(CC(=O)O)C(C5CC41)C3N2` (stereo unspecified), for which the T/C (dose: 15.0 mg/kg/injection, schedule: Q01DX005 (ip), vehicle: saline) was 100 % of control; the T/C (dose: 30.0 mg/kg/injection, schedule: Q01DX005 (ip), vehicle: saline) was 96 % of control; the T/C (dose: 60.0 mg/kg/injection, schedule: Q01DX005 (ip), vehicle: saline with Tween-80) was 99 % of control; the T/C (dose: 60.0 mg/kg/injection, schedule: Q01DX005 (ip), vehicle: saline) was 94 % of control and 93 % of control; the T/C (dose: 120.0 mg/kg/injection, schedule: Q01DX005 (ip), vehicle: saline) is 96 % of control.
On to `CCOc1ccc(/C=N/NC(=O)C(=O)N/N=C/c2ccc(OCC)c(OCC)c2)cc1OCC`, for which the T/C is, setting by setting: (dose: 6.25 mg/kg/injection, schedule: Q01DX005 (ip), vehicle: Klucel (hydroxypropylcellulose) (HPC)) 102 % of control and 95 % of control and 96 % of control; (dose: 50.0 mg/kg/injection, schedule: Q01DX009 (ip), vehicle: Klucel (hydroxypropylcellulose) (HPC)) 90 % of control; (dose: 200.0 mg/kg/injection, schedule: Q01DX009 (ip), vehicle: Klucel (hydroxypropylcellulose) (HPC)) 92 % of control.
For the compound `COc1cc2c(c(OC)c1OC)CCC/C2=N\NC(N)=S`, the T/C is 92 % of control (dose: 100.0 mg/kg/injection, schedule: Q04DX003 (ip), vehicle: Klucel (hydroxypropylcellulose) (HPC)); 92 % of control (dose: 200.0 mg/kg/injection, schedule: Q04DX003 (ip), vehicle: Klucel (hydroxypropylcellulose) (HPC)); 86 % of control (dose: 400.0 mg/kg/injection, schedule: Q04DX003 (ip), vehicle: Klucel (hydroxypropylcellulose) (HPC)).
Turning to `CC12C(=O)C(c3ccccc3)(C(c3ccccc3)=C1c1ccccc1)C1OC(=O)OC12` (stereo unspecified), the T/C runs as follows: under setting [2], 95 % of control; under setting [3], 91 % of control.
Consider `O=C(O)COc1ccc(-c2ccc(Br)cc2)cc1`, for which the T/C is, setting by setting: (dose: 12.5 mg/kg/injection, schedule: Q01DX009 (ip), vehicle: saline with Tween-80) 91 % of control; (dose: 25.0 mg/kg/injection, schedule: Q01DX009 (ip), vehicle: saline with Tween-80) 97 % of control; under setting [2], 103 % of control.
Turning to `Nc1ccc(S(=O)(=O)Nc2cnc3c(Cl)cccc3n2)cc1`, the T/C is 98 % of control and 99 % of control (dose: 50.0 mg/kg/injection, schedule: Q01DX005 (ip), vehicle: DMSO); 108 % of control under setting [1]; 108 % of control and 116 % of control (dose: 100.0 mg/kg/injection, schedule: Q01DX005 (ip), vehicle: DMSO); 106 % of control under setting [4]; 121 % of control (dose: 200.0 mg/kg/injection, schedule: Q01DX005 (ip), vehicle: DMSO); 111 % of control under setting [5]. In addition, the T/C (dose: 400.0 mg/kg/injection, schedule: Q01DX005 (ip), vehicle: DMSO) is 120 % of control.
On to `C(#Cc1ccncc1)c1ccncc1`, for which the T/C by setting is: under setting [6], 100 % of control; under setting [7], 98 % of control.
`COc1ccc(-c2oc(=O)cc(-c3ccccc3)c2-c2ccccc2)cc1`: the T/C is 112 % of control under setting [6], 93 % of control under setting [7] and 87 % of control under setting [8].
`CC(C)CCCCCCCCCCCCC(=O)NCCC(=O)NC1C(CO)OC(Nc2ncnc3nc[nH]c23)C(O)C1O` (stereo unspecified): the T/C is, setting by setting: (dose: 0.39 mg/kg/injection, schedule: Q01DX009 (ip), vehicle: other) 107 % of control; (dose: 0.78 mg/kg/injection, schedule: Q01DX009 (ip), vehicle: other) 102 % of control; (dose: 1.56 mg/kg/injection, schedule: Q01DX009 (ip), vehicle: other) 156 % of control; (dose: 6.25 mg/kg/injection, schedule: Q01DX009 (ip), vehicle: other) 112 % of control and 96 % of control; (dose: 12.5 mg/kg/injection, schedule: Q01DX009 (ip), vehicle: other) 93 % of control.
Regarding `CC(C)(C)c1cc(/C=N\O)cc(C(C)(C)C)c1O`, the T/C was 98 % of control (dose: 50.0 mg/kg/injection, schedule: Q01DX009 (ip), vehicle: saline); 107 % of control (dose: 100.0 mg/kg/injection, schedule: Q01DX009 (ip), vehicle: saline); 107 % of control (dose: 200.0 mg/kg/injection, schedule: Q01DX009 (ip), vehicle: saline).
Turning to `O=C(N/N=C/c1ccccc1O)c1ccccc1O`, the T/C was 100 % of control under setting [6], 96 % of control under setting [7] and 99 % of control under setting [8].
As for `Cc1[nH]c2ccccc2c1SCc1ccccc1`, the T/C (dose: 25.0 mg/kg/injection, schedule: Q01DX009 (ip), vehicle: saline + alcohol) is 94 % of control; the T/C (dose: 50.0 mg/kg/injection, schedule: Q01DX009 (ip), vehicle: saline + alcohol) was 100 % of control; the T/C (dose: 100.0 mg/kg/injection, schedule: Q01DX009 (ip), vehicle: saline + alcohol) is 99 % of control.
In the case of `CCOC(=O)CNC(=O)C(CSSCC(NC(=O)OCc1ccccc1)C(=O)O)NC(=O)OCc1ccccc1` (stereo unspecified), the T/C runs as follows: under setting [1], 97 % of control; under setting [4], 97 % of control; under setting [5], 99 % of control.
With `CCOC1CC(C)(O)Cc2cc3c(c(O)c21)C(=O)c1c(O)cc2c(c1C3=O)OC1OC2(C)C(O)C(N(C)C)C1O` (stereo unspecified), the T/C (dose: 2.5 mg/kg/injection, schedule: Q01DX009 (ip), vehicle: other) was 150 % of control and 156 % of control; the T/C (dose: 3.25 mg/kg/injection, schedule: Q01DX009 (ip), vehicle: other) is 151 % of control; the T/C (dose: 5.0 mg/kg/injection, schedule: Q01DX009 (ip), vehicle: other) was 166 % of control and 207 % of control; the T/C (dose: 6.5 mg/kg/injection, schedule: Q01DX009 (ip), vehicle: other) is 163 % of control; the T/C (dose: 10.0 mg/kg/injection, schedule: Q01DX009 (ip), vehicle: other) is 178 % of control and 205 % of control; the T/C (dose: 13.0 mg/kg/injection, schedule: Q01DX009 (ip), vehicle: other) is 93 % of control. The T/C (dose: 20.0 mg/kg/injection, schedule: Q01DX009 (ip), vehicle: other) is 87 % of control.
In the case of `CC(C)C1N(N2C(=O)CS(=O)(=O)C2C(C)C)C(=O)CS1(=O)=O` (stereo unspecified), the T/C reads like this: under setting [6], 98 % of control; under setting [7], 101 % of control; under setting [8], 102 % of control.
With `O=C(Nc1ccc(C2=NCCN2)cc1)C1CCC(C(=O)Nc2ccc(C3=NCCN3)cc2)CC1` (stereo unspecified), the T/C under setting [3] was 227 % of control; the T/C (dose: 100.0 mg/kg/injection, schedule: Q04DX003 (ip), vehicle: saline with Tween-80) was 154 % of control; the T/C (dose: 200.0 mg/kg/injection, schedule: Q01DX009 (ip), vehicle: saline with Tween-80) was 209 % of control; the T/C (dose: 200.0 mg/kg/injection, schedule: Q04DX003 (ip), vehicle: saline with Tween-80) was 186 % of control; the T/C (dose: 264.0 mg/kg/injection, schedule: Q04DX003 (ip), vehicle: saline with Tween-80) is 213 % of control; the T/C (dose: 400.0 mg/kg/injection, schedule: Q01DX009 (ip), vehicle: saline with Tween-80) is 118 % of control. Moreover, the T/C (dose: 400.0 mg/kg/injection, schedule: Q04DX003 (ip), vehicle: saline with Tween-80) is 231 % of control and 254 % of control; the T/C (dose: 600.0 mg/kg/injection, schedule: Q04DX003 (ip), vehicle: saline with Tween-80) is 236 % of control.
For `CSc1ccc2ns[s+]c2c1`, the T/C was 104 % of control under setting [6], 102 % of control under setting [7] and 101 % of control under setting [8].
